# Measurements from patent US12077503B2, “Substituted cyclic amides and their use as herbicides” (FMC CORPORATION, priority 2015, dated 2024).
# What was measured:
# Assay type in all cases: in vivo
# Kochia (Kochia scoparia) [1] = assay: Test A preemergence; conditions: Bassia scoparia, pre-emergence, 240 h; for pest or weed control at 125 g/ha: 125 g ai/ha, preemergence, 0 to 100 scale where 0 is no effect and 100 is complete control, read-out: Kochia plant response rating; for pest or weed control at 500 g/ha: 500 g ai/ha, Preemergence, visual injury vs untreated controls after approximately 10 d, read-out: Kochia plant response rating (0 to 100 scale where 0 is no effect and 100 is complete control)
# How it was run: (§1)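 Ratings of 0 (no effect) to 100 (complete control) come from visual comparison with untreated controls roughly 10 d after treatment. Test chemicals, formulated in a non-phytotoxic solvent mixture with surfactant, were applied either as a preemergence directed soil spray on seeded soil or postemergence to one- to two-leaf plants 2 to 10 cm tall.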
# [2] = test system: barnyardgrass (Echinochloa crus-galli); assay: Test A preemergence; conditions: Echinochloa crus-galli, pre-emergence, 240 h; for pest or weed control at 125 g/ha: 125 g ai/ha, preemergence, 0 to 100 scale where 0 is no effect and 100 is complete control, read-out: Barnyardgrass plant response rating; for pest or weed control at 500 g/ha: 500 g ai/ha, Preemergence, visual injury vs untreated controls after approximately 10 d, read-out: Barnyardgrass plant response rating (0 to 100 scale where 0 is no effect and 100 is complete control)
# How it was run: as §1
# [3] = test system: giant foxtail (Setaria faberii); assay: Test A preemergence; conditions: Setaria faberi, pre-emergence, 240 h; for pest or weed control at 125 g/ha: 125 g ai/ha, preemergence, 0 to 100 scale where 0 is no effect and 100 is complete control, read-out: Foxtail, Giant plant response rating; for pest or weed control at 500 g/ha: 500 g ai/ha, Preemergence, visual injury vs untreated controls after approximately 10 d, read-out: Foxtail, Giant plant response rating (0 to 100 scale where 0 is no effect and 100 is complete control)
# How it was run: as §1
# [4] = test system: pigweed (Amaranthus retroflexus); assay: Test A preemergence; conditions: Amaranthus retroflexus, pre-emergence, 240 h; for pest or weed control at 125 g/ha: 125 g ai/ha, preemergence, 0 to 100 scale where 0 is no effect and 100 is complete control, read-out: Pigweed plant response rating; for pest or weed control at 500 g/ha: 500 g ai/ha, Preemergence, visual injury vs untreated controls after approximately 10 d, read-out: Pigweed plant response rating (0 to 100 scale where 0 is no effect and 100 is complete control)
# [5] = test system: ragweed (common ragweed, Ambrosia elatior); assay: Test A preemergence; conditions: Ambrosia artemisiifolia, pre-emergence, 240 h; for pest or weed control at 125 g/ha: 125 g ai/ha, preemergence, 0 to 100 scale where 0 is no effect and 100 is complete control, read-out: Ragweed plant response rating; for pest or weed control at 500 g/ha: 500 g ai/ha, Preemergence, visual injury vs untreated controls after approximately 10 d, read-out: Ragweed plant response rating (0 to 100 scale where 0 is no effect and 100 is complete control)
# How it was run: as §1
# [6] = test system: ryegrass, Italian (Italian ryegrass, Lolium multiflorum); assay: Test A preemergence; conditions: Lolium multiflorum, pre-emergence, 240 h; for pest or weed control at 125 g/ha: 125 g ai/ha, preemergence, 0 to 100 scale where 0 is no effect and 100 is complete control, read-out: Ryegrass, Italian plant response rating; for pest or weed control at 500 g/ha: 500 g ai/ha, Preemergence, visual injury vs untreated controls after approximately 10 d, read-out: Ryegrass, Italian plant response rating (0 to 100 scale where 0 is no effect and 100 is complete control)
# How it was run: as §1
# [7] = test system: Galium (catchweed bedstraw, Galium aparine); assay: Test A postemergence; conditions: Galium, post-emergence, 240 h, 125 g ai/ha, postemergence, visual injury rating after approximately 10 d; read-out: Galium plant response rating (0 to 100 scale, 0 no effect, 100 complete control)
# How it was run: as §1
# Kochia (Kochia scoparia) [8] = assay: Test A postemergence; conditions: Bassia scoparia, post-emergence, 240 h, 125 g ai/ha, postemergence, visual injury rating after approximately 10 d; read-out: Kochia plant response rating (0 to 100 scale, 0 no effect, 100 complete control)
# How it was run: as §1
# [9] = test system: ragweed (common ragweed, Ambrosia elatior); assay: Test A postemergence; conditions: Ambrosia artemisiifolia, post-emergence, 240 h, 125 g ai/ha, postemergence, visual injury rating after approximately 10 d; read-out: Ragweed plant response rating (0 to 100 scale, 0 no effect, 100 complete control)
# How it was run: as §1
# [10] = test system: ryegrass, Italian (Italian ryegrass, Lolium multiflorum); assay: Test A postemergence; conditions: Lolium multiflorum, post-emergence, 240 h, 125 g ai/ha, postemergence, visual injury rating after approximately 10 d; read-out: Ryegrass, Italian plant response rating (0 to 100 scale, 0 no effect, 100 complete control)
# How it was run: as §1
# [11] = test system: wheat (Triticum aestivum); assay: Test A postemergence; conditions: Triticum aestivum, post-emergence, 240 h, 125 g ai/ha, postemergence, visual injury rating after approximately 10 d; read-out: Wheat plant response rating (0 to 100 scale, 0 no effect, 100 complete control)
# How it was run: as §1
# [12] = test system: barnyardgrass (Echinochloa crus-galli); assay: Test B flooded paddy test; conditions: Echinochloa crus-galli, Flood, 250 g ai/ha; scale of 0 to 100 where 0 is no effect and 100 is complete control; read-out: Barnyardgrass plant response rating
# How it was run: (§2)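 Visual ratings (0 none to 100 complete control) are relative to untreated plants, taken 13–15 d after treatment in a greenhouse. Test material went straight into floodwater standing 3 cm above the soil, kept constant, on plants at the 2-leaf stage.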
# [13] = test system: ducksalad (Heteranthera limosa); assay: Test B flooded paddy test; conditions: Heteranthera limosa, Flood, 250 g ai/ha; scale of 0 to 100 where 0 is no effect and 100 is complete control; read-out: Ducksalad plant response rating
# How it was run: as §2
# rice (Oryra sativa) = assay: Test B flooded paddy test; conditions: Oryza sativa, Flood, 250 g ai/ha; scale of 0 to 100 where 0 is no effect and 100 is complete control; read-out: Rice plant response rating
# How it was run: as §2
# [14] = test system: sedge, umbrella (small-flower umbrella sedge, Cyperus difformis); assay: Test B flooded paddy test; conditions: Cyperus difformis, Flood, 250 g ai/ha; scale of 0 to 100 where 0 is no effect and 100 is complete control; read-out: Sedge, Umbrella plant response rating
# How it was run: as §2
SMILES,pest or weed control at 125 g/ha (Kochia (Kochia scoparia) [1]),pest or weed control at 500 g/ha (Kochia (Kochia scoparia) [1]),pest or weed control at 125 g/ha [2],pest or weed control at 500 g/ha [2],pest or weed control at 125 g/ha [3],pest or weed control at 500 g/ha [3],pest or weed control at 125 g/ha [4],pest or weed control at 500 g/ha [4],pest or weed control at 125 g/ha [5],pest or weed control at 500 g/ha [5],pest or weed control at 125 g/ha [6],pest or weed control at 500 g/ha [6],pest or weed control at 125 g/ha [7],pest or weed control at 125 g/ha (Kochia (Kochia scoparia) [8]),pest or weed control at 125 g/ha [9],pest or weed control at 125 g/ha [10],plant injury at 125 g/ha [11],pest or weed control at 250 g/ha [12],pest or weed control at 250 g/ha [13],pest or weed control at 250 g/ha (rice (Oryra sativa)),also measured
CC(C)c1cccc([C@H]2CN(C)C(=O)[C@@H]2C(=O)Nc2ccccc2S(C)(=O)=O)c1 [Compound 820],70%,80%,90%,100%,90%,100%,40%,70%,20%,60%,60%,80%,30%,20%,20%,30%,40%,60%,75%,0%,pest or weed control at 250 g/ha [14]: 0%
CC(C)c1cccc([C@H]2CN(C)C(=O)[C@@H]2C(=O)Nc2ccc(F)cc2F)c1 [Compound 821],70%,90%,90%,90%,90%,100%,50%,50%,0%,0%,80%,90%,50%,30%,0%,20%,0%,60%,80%,0%,pest or weed control at 250 g/ha [14]: 0%
CN1C[C@H](c2cccc(F)c2)[C@@H](C(=O)Nc2ccccc2F)C1=O [Compound 822],70%,80%,90%,100%,90%,100%,0%,50%,0%,30%,20%,40%,20%,0%,0%,20%,0%,75%,85%,0%,pest or weed control at 250 g/ha [14]: 0%
Cc1c(F)cccc1NC(=O)[C@H]1C(=O)NC[C@@H]1c1cccc(C(F)(F)F)c1 [Compound 826],70%,90%,90%,100%,100%,100%,0%,60%,20%,80%,70%,80%,50%,30%,50%,60%,60%,65%,100%,0%,pest or weed control at 250 g/ha [14]: 0%
Cc1cc(F)ccc1NC(=O)[C@H]1C(=O)NC[C@@H]1c1cccc(C(F)(F)F)c1 [Compound 828],40%,40%,70%,90%,90%,100%,0%,0%,0%,0%,50%,70%,30%,0%,0%,20%,20%,0%,30%,0%,pest or weed control at 250 g/ha [14]: 0%
Cc1c(F)ccc([C@H]2CN(C)C(=O)[C@@H]2C(=O)Nc2ccccc2F)c1F [Compound 833],70%,80%,90%,90%,90%,100%,0%,0%,0%,20%,70%,80%,40%,30%,0%,60%,0%,45%,85%,0%,pest or weed control at 250 g/ha [14]: 0%
